Measured values reported in PubChem BioAssay (NCI).
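96-well plates; 48 h exposure; 5 concentrations. Endpoints by linear interpolation between flanking doses. Not reached: highest tested concentration assigned. TGI denotes the concentration required for complete inhibition of growth.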

Key:
Assay in all cases: growth of human tumour cells (NCI), 48 h
[1] = tested on: SR leukemia
[2] = tested on: SW-620 colon
[3] = tested on: MDA-MB-231 breast
[4] = tested on: K-562 leukemia
[5] = tested on: MOLT-4 leukemia
[6] = tested on: ACHN renal
[7] = tested on: U251 CNS
[8] = tested on: A498 renal
[9] = tested on: CAKI-1 renal
[10] = tested on: 786-0 renal
[11] = tested on: UACC-62 melanoma
[12] = tested on: BT-549 breast
[13] = tested on: COLO 205 colon
[14] = tested on: NCI/ADR-RES ovarian
[15] = tested on: SNB-75 CNS
[16] = tested on: SK-MEL-2 melanoma
[17] = tested on: OVCAR-8 ovarian
[18] = tested on: OVCAR-5 ovarian
[19] = tested on: T-47D breast
[20] = tested on: MDA-MB-435
[21] = tested on: TK-10 renal
[22] = tested on: MCF7 breast
[23] = tested on: NCI-H23 lung
[24] = tested on: UACC-257 melanoma
[25] = tested on: HCT-15 colon
[26] = tested on: M14 melanoma
[27] = tested on: HS 578T breast
[28] = tested on: PC-3 prostate
[29] = tested on: HOP-62 NSCLC
[30] = tested on: SNB-19 CNS
[31] = tested on: SK-MEL-5 melanoma
[32] = tested on: HCT-116 colon
[33] = tested on: HCC-2998 colon
[34] = tested on: RPMI-8226 leukemia
[35] = tested on: RXF 393 renal
[36] = tested on: EKVX NSCLC
[37] = tested on: LOX IMVI melanoma
[38] = tested on: HT29 colon
[39] = tested on: IGROV1 ovarian
[40] = tested on: KM12 colon
[41] = tested on: MDA-N
[42] = tested on: DU-145 prostate
[43] = tested on: OVCAR-4 ovarian
[44] = tested on: CCRF-CEM leukemia
[45] = tested on: NCI-H522 lung
[46] = tested on: SK-OV-3 ovarian
[47] = tested on: NCI-H460 lung
[48] = tested on: UO-31 renal
[49] = tested on: SF-268 CNS
[50] = tested on: SF-295 CNS
[51] = tested on: NCI-H226 lung
[52] = tested on: OVCAR-3 ovarian
[53] = tested on: SN12C renal
[54] = tested on: A549 NSCLC
[55] = tested on: MALME-3M melanoma

## CC(=O)NC1C(OC(C)C(=O)NC(C(=O)NC(CCC(=O)NCCCNC2c3ccccc3Nc3cccc([N+](=O)[O-])c32)C(N)=O)C(C)C)C(O)C(CO)OC1(C)OCc1ccccc1 (stereo not given)
[1]
  TGI: 634 nM
[2]
  TGI: 1810 nM
[3]
  TGI: 3.02 µM
[4]
  TGI: 7.65 µM
[5]
  TGI: 2600 nM
[6]
  TGI: 2190 nM
[7]
  TGI: 3.22 µM
[8]
  TGI: 4.11 µM
[9]
  TGI: 3.05 µM
[10]
  TGI: 2350 nM
[11]
  TGI: 2100 nM
[12]
  TGI: 4.1 µM
[13]
  TGI: 7.77 µM
[14]
  TGI: 4.76 µM
[15]
  TGI: 4.34 µM
[16]
  TGI: 3.56 µM
[17]
  TGI: 3.28 µM
[18]
  TGI: 9.44 µM
[19]
  TGI: 4.16 µM
[20]
  TGI: 2770 nM
[21]
  TGI: 695 nM
[22]
  TGI: 2850 nM
[23]
  TGI: 3.3 µM
[24]
  TGI: 5.14 µM
[25]
  TGI: 1970 nM
[26]
  TGI: 12.2 µM
[27]
  TGI: 4.75 µM
[28]
  TGI: 3.33 µM
[29]
  TGI: 5.87 µM
[30]
  TGI: 3.67 µM
[31]
  TGI: 405 nM
[32]
  TGI: 1300 nM
[33]
  TGI: 2200 nM
[34]
  TGI: 1010 nM
[35]
  TGI: 2130 nM
[36]
  TGI: 3.43 µM
[37]
  TGI: 4.6 µM
[38]
  TGI: 417 nM
[39]
  TGI: 3.2 µM
[40]
  TGI: 3.48 µM
[41]
  TGI: 4.78 µM
[42]
  TGI: 817 nM
[43]
  TGI: 3.64 µM
[44]
  TGI: 4.59 µM
[45]
  TGI: 2370 nM
[46]
  TGI: 3.33 µM
[47]
  TGI: 405 nM
[48]
  TGI: 2730 nM
[49]
  TGI: 3.3 µM
[50]
  TGI: 3.23 µM
[51]
  TGI: 2950 nM
[52]
  TGI: 2850 nM
[53]
  TGI: 3.82 µM
[54]
  TGI: 1940 nM
[55]
  TGI: 2690 nM
